Laboratory results: US20200275624A1, “A METHOD FOR PRODUCING BANANA PLANTS WITH TOLERANCE TO FUSARIUM OXYSPORUM CUBENSIS TR4” (RAHAN MERISTEM (1998) LTD, priority 2017, published 2020)

Tested on: banana meristems
Test: Micropropagation of banana meristems in media comprising a cytokinin-like substance
Format: cell-based
Details: meristematic tissue propagation; compared with other cytokinin-like substances; TDZ in the range of 0.1 ppm
Source text: In some embodiments, during the propagation stage, and typically before exposure to the demethylating agent, the meristematic tissues are propagated, at least in one propagating cycle, in a media comprising a cytokinin-like substance. Cytokinin like substances are known in the art, and non-limiting examples, include isopentenyl adenine (2iP), kinetin (KIN), 6-Benzyladenin (BA) and 6-Benzylaminopurine (BAP), 1-phenyl-3-(1,2,3-thiadiazol-5-yl) urea (TDZ).
The presence of TDZ in the culture media is in very low amounts, typically, in the range of 0.1 ppm. This amount is sufficient to induce the desired cell division.
On the 7th cycle of propagation 0.1 ppm Thidiazuron (TDZ) was added to the medium. In cycles 20 and 21, 30 μM 5-Aza-2-Deoxycytidine (a demethylation compound) was filter sterilized and added to the medium after solidification.

`O=C(Nc1ccccc1)Nc1cnns1` [TDZ, 1-phenyl-3-(1,2,3-thiadiazol-5-yl) urea] was tested, and the rate of multiplication was “best rate of multiplication”.
